Peptide text beside a SMILES is read from it.

Usually Kd stands for the equilibrium constant for the complex coming apart. Read a low Kd as tighter binding.

In one experiment the target is T1, AtPCO5.Ni(II) (Arabidopsis thaliana, UniProt Q9LXT4).
T1 construct: His6 (cleaved yes); made in house
Nature of the experiment: Plate-based intrinsic Trp fluorescence quenching binding assay, AtPCO5.Ni(II). The following applies: 8 µM AtPCO5.Ni(II) (enzyme:metal 1:2), 0-750 µM peptide, anaerobic, 10 min, 25 °C, 50 mM Tris pH 7.5, 0.4 M NaCl, λex/λem 280/350 nm; ± Std. Error of fit, n = 3. The protocol:
(§1) Following affinity purification, the His6-tag was cleaved using TEV protease and the cleaved tag was removed using a HisTrap HP column (GE Healthcare). To remove the active site metal which co-purifies with PCO enzymes, concentrated protein fractions were dialysed into 50 mM Tris (pH 7.5), 0.4 M NaCl, 100 mM EDTA and 10 mM 1,10-Phenanthroline followed by dialysis into 50 mM Tris (pH 7.5), 0.4 M NaCl and 0.1% (w/v) Chelex® 100 resin to remove excess EDTA and 1,10-Phenanthroline. Dialysed protein was then purified with a HiLoad 26/600 Superdex 75 prep grade size exclusion column (GE Healthcare) equilibrated with 50 mM Tris (pH 7.5) and 0.4 M NaCl (herein termed assay buffer). Protein purity was assessed with SDS-PAGE. To check that Fe(II) was removed, activity assays of metal-removed protein were conducted as described previously.
(§2) Metal-removed AtPCO4/5 was incubated with Ni(II) (NiCl2.6H2O, Alfa Aesar) at enzyme:metal, 1:2 ratio and diluted to the desired volume in assay buffer to a final enzyme concentration of 8 µM, termed the enzyme master mix.

For another experiment, the target named is T2, AtPCO4.Ni(II) (Arabidopsis thaliana, UniProt Q9SJI9).
T2 construct: His6 (cleaved yes); made in house
Nature of the experiment: Plate-based intrinsic Trp fluorescence quenching binding assay, AtPCO4.Ni(II). The following applies: 8 µM AtPCO4.Ni(II) (enzyme:metal 1:2), 0-750 µM peptide, anaerobic, 10 min, 25 °C, 50 mM Tris pH 7.5, 0.4 M NaCl, λex/λem 280/350 nm; ± Std. Error of fit, n = 3. The protocol: as §1, §2

T1 sequence (Q9LXT4 whole entry): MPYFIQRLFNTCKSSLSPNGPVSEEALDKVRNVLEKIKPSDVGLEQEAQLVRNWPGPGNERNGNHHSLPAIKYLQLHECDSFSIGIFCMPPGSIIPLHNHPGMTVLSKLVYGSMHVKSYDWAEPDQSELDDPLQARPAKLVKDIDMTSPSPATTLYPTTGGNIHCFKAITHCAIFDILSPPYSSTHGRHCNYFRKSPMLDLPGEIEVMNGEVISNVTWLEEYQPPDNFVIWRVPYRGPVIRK

`CC[C@H](C)[C@H](NC(=O)[C@H](C)NC(=O)CNC(=O)CNC(=O)[C@@H](N)CS)C(=O)N[C@@H](CC(C)C)C(=O)N[C@@H](CO)C(=O)N[C@@H](CC(=O)O)C(=O)N[C@H](C(=O)N[C@H](C(=O)N[C@@H](C)C(=O)N1CCC[C@H]1C(=O)N[C@@H](CO)C(=O)N[C@@H](C)C(=O)O)[C@@H](C)CC)[C@@H](C)CC` [HRE1_2-15] (H-CGGAILSDIIAPSA-OH): the dissociation constant Kd turned out to be 223 ± 10.3 µM at AtPCO5.Ni(II) and 298 ± 37.7 µM on AtPCO4.Ni(II).

For the origin of these results see publication PMC11685595, “Measuring plant cysteine oxidase interactions with substrates using intrinsic tryptophan fluorescence” (Scientific Reports, 2024).
